20 compounds from patent US6906094B2, “1,2,4-tribsubstituted benzenes as inhibitors of 15-lipoxygenase” (Warner-Lambert Company, priority 2000, dated 2005) can be followed below.

The term IC50 denotes the concentration that gives 50% inhibition.

The first assay addresses T1, human 15-LO (Homo sapiens, UniProt P16050).
T1 construct: made in house; host or cells: Sf9 insect cells (baculovirus, Bac-to-Bac)
T1 sequence (P16050 1-662): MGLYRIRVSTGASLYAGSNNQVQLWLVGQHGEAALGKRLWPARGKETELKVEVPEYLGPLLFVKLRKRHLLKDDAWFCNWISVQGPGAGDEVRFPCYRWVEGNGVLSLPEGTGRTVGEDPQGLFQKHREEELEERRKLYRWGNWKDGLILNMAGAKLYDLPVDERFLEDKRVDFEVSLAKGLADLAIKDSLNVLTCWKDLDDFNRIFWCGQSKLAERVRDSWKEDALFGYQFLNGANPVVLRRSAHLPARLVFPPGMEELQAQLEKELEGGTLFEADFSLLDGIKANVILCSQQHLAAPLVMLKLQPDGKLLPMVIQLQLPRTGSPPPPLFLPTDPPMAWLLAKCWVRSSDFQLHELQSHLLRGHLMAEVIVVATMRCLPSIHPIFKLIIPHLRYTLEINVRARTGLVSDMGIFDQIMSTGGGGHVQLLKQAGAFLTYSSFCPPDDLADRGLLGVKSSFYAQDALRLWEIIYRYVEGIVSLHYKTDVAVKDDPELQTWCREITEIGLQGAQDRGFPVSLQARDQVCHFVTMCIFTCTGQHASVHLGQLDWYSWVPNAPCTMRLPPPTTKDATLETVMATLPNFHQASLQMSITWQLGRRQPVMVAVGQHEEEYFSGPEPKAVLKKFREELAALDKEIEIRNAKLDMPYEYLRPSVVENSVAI
In words: Human Lysate 15-LO Assay (HUM15LO). It counts as biochemical. To be noted: recombinant human 15-LO, 174 μM linoleic acid, 15 minutes at 4° C., 13-HODE quantitated. The method, then:
In the HUM15LO assay, a test compound of the present invention was incubated with 15-LO enzyme in the presence of the linoleic acid substrate. For example, a known amount of a test compound of the present invention, 100 μL of human 15-LO, and 174 μM linoleic acid in PBS containing 0.2% sodium cholate were incubated for 15 minutes at 4° C. The reaction was stopped with 100 μL of mobile phase and 10 μL of triethyl phosphite. […] 13-HODE was quantitated by comparing peak areas of individual samples with those from a standard curve generated using authentic 13-HODE. The test reaction is compared to a control reaction, which is identical to the test reaction except no test compound of the present invention is present Percent inhibition is calculated as the amount of 13-HODE produced by the test reaction divided by the amount of 13-HODE produced by the control reaction, expressed as a percent.
Human 15-LO was generated in a recombinant 15-lipoxygenase bacculovirus expression system, using Gibco/BRL/Life Technologies' Bac-to-Bac expression reagents; T4 DNA ligase, Kanamycin, Gentamicin, tetracycline, penicillin, streptomycin, Bluo-gal, IPTG, DH10Bac competent cells, SOC, LB medium, Sf-900 II SFM media, Sf9 insect cells, Cell Fectin, and EcoRI, BamHI and KpnI restriction enzymes.
As to `CCCCCCCCCCCCOC(=O)NS(=O)(=O)Nc1cc(-c2cc3cc(F)c(F)cc3[nH]2)ccc1OC` [Example 1, Carbamic Acid, [[[5-(5,6-difluoro-IH-indol-2-yl)-2-methoxyphenyl]amino]-sulfonyl]-, Dodecyl Ester], the IC50 was 6 nM. As for `COc1ccc(C(=O)Nc2ccc(F)c(F)c2)cc1NS(=O)(=O)NC(=O)OCCN1CCOCC1` [Example 2, Carbamic Acid, [[[5[[(3,4-difluorophenyl)amino]carbonyl]-2-methoxyphenyl]-amino]sulfonyl]-, 2-(4morpholinyl)ethyl ester], the IC50 worked out at 384 nM.

As to `COc1ccc(C(=O)Nc2ccc(F)c(F)c2)cc1NS(=O)(=O)NC(=O)OCCCN(C)C` [Example 3, Carbamic Acid, [[(5-[[(3,4-diflu rophenyl)amino]carbonyl]-2-methoxyphenyl]amino]sulfonyl]-, 3-(dimethylamino)propyl Ester], the IC50 is 408 nM. Consider `COc1ccc(C(=O)Nc2ccc(F)c(F)c2)cc1NS(=O)(=O)NC(=O)OCCN1CCCC1` [Example 4, Carbamic Acid, [[[5-[[(3,4-difluorophenyl)amino]carbonyl]-2-methoxyphenyl]amino]-suffonyl]-, 2-(1-pyrrolidinyl)ethyl ester], for which the IC50 came out at 144 nM.

As to `COc1ccc(C(=O)Nc2ccc(F)c(F)c2)cc1NS(=O)(=O)NC(=O)OCCN(C)C` [Example 5, Carbamic Acid, [[[5-[[(3,4-difluorophenyl)amino]carbonyl]-2-methoxyphenyl]amino]sulfonyl]-, 2-(dimethylamino)ethyl ester], the IC50 was 240 nM. As for `COc1ccc(C(=O)Nc2ccc(F)c(F)c2)cc1NS(=O)(=O)NC(=O)OCCc1cccs1` [Example 7, Carbamic Acid, [[[5-[[(3,4-difluorophenyl)amino]carbonyl]-2-methoxyphenyl]amino]sulfonyl]-, 2-(2-thienyl)ethyl ester], the 50% inhibitory concentration (IC50) is 79 nM. For `CCS(=O)(=O)CCOC(=O)NS(=O)(=O)Nc1cc(C(=O)Nc2ccc(F)c(F)c2)ccc1OC` [Example 8, Carbamic Acid, [[[5-[[(3,4-difluorophenyl)amino]carbonyl]-2-methoxyphenyl]amino]sulfonyl]-, 2-(ethylsulfonyl)ethyl ester], the half-inhibitory concentration (IC50) worked out at 312 nM. On to `COc1ccc(C(=O)Nc2ccc(F)c(F)c2)cc1NS(=O)(=O)NC(=O)OCCCBr` [Example 9, Carbamic Acid, [[[5-[[(3,4-difluorophenyl)amino]carbonyl]-2-methoxyphenyl]amino]sulfonyl]-, 3-bromopropyl ester], for which the IC50 was 154 nM. Same read-out and setting: the figure for `COc1ccc(-c2cc3cc(F)c(F)cc3[nH]2)cc1NS(=O)(=O)N(C)C(=O)OCCCOCc1ccccc1` [Example 13, Carbamic Acid, [[[5-(5,6-difluoro-IH-indol-2-yl)-2-methoxyphenyl]amino]-sulfonyl]methyl-, 3(phenylmethoxy)propyl ester] is 30 nM; for `COc1ccc(-c2cc3cc(F)c(F)cc3[nH]2)cc1NS(=O)(=O)NC(=O)OCC(=O)OCc1ccccc1` [Example 16, Acetic Acid, [[[[[[5-(5,6-difluoro-IH-indol-2-yl)-2-methoxyphenyl]amino]-sulfonyl]amino]carbonyl]oxy]-, phenylmethyl ester] it is 10 nM; for `COc1ccc(C(=O)Nc2ccc(F)c(F)c2)cc1NS(=O)(=O)NC(=O)Nc1ccccc1` [Example 18, Benzamide, N-(3,4-difluorophenyl)-4-methoxy-3-[[[[(phenylamino)carbonyl]-amino]sulfonyl]amino]] it is 142 nM. On the same count and under the same terms, in the case of `CCOC(=O)NS(=O)(=O)Nc1cc(C(=O)Nc2ccc(F)c(F)c2)ccc1OC` [Example 19, Carbamic Acid, [[[5-[[(3,4-difluorophenyl)amino]carbonyl]-2-methoxyphenyl]amino]sulfonyl]-, Ethyl Ester] it was 339 nM.

For `COc1ccc(NS(=O)(=O)NC(=O)Nc2cc(C(=O)Nc3ccc(F)c(F)c3)ccc2OC)cc1` [Example 20, Benzamide, N-(3,4-difluorophenyl)-4-methoxy-3-[[[[[(4-methoxyphenyl)-amino]sulfonyl]amino]carbonyl]amino]], the half-inhibitory concentration (IC50) stood at 1050 nM. As to `CCOC(=O)NS(=O)(=O)Nc1cc(-c2cc3ccccc3[nH]2)ccc1OC` [Example 26, Carbamic Acid, [[[5-(IH-indol-2-yl)-2-methoxyphenyl]amino]sulfonyl]-, Ethyl Ester], the IC50 was found to be 630 nM.

With `COc1ccc(C(=O)Nc2ccc(F)c(F)c2)cc1NS(=O)(=O)NC(=O)Nc1cccc([N+](=O)[O-])c1` [Example 60, Benzamide, N-(3,4-difluorophenyl)-4-methoxy-3-[[[[[(3-nitrophenyl) -amino]carbonyl]amino]sulfonyl]amino]], the IC50 was 25 nM. Still for that read-out and setting: the figure for `COc1ccc(C(=O)Nc2ccc(F)c(F)c2)cc1NS(=O)(=O)NC(=O)Nc1cc(C(F)(F)F)cc(C(F)(F)F)c1` [Example 62, Benzamide, 3-[[[[[[3,5-bis(trifluoromethyl)phenyl]amino]-carbonyl]amino]-sulfonyl]amino]-N-(3,4-difluorophenyl)-4-methoxy] is 173 nM. Still for that read-out and setting: the figure for `COc1ccc(C(=O)Nc2ccc(F)c(F)c2)cc1NS(=O)(=O)NC(=O)Nc1ccc(N)cc1` [Example 63, Benzamide, 3-[[[[[(4-aminophenyl)amino]carbonyl]amino]sulfonyl]amino]-N-(3,4-difluorophenyl)-4-methoxy-, mono(trifluoroacetate)] is 214 nM; for `COc1ccc(C(=O)Nc2ccc(F)c(F)c2)cc1NS(=O)(=O)NC(=O)Nc1ccccc1` [Example 67, Benzamide, N-(3,4-difluorophenyl)-4-methoxy-3-[[[[(phenylamino)carbonyl]-amino]sulfonyl]amino]] it is 182 nM. Regarding “Carbamic Acid, [[[5-[[(3,4-difluorophenyl)amino]carbonyl]-2-methoxyphenyl]amino]sulfonyl]methyl-, Ethyl ester [Example 69]”, the IC50 was found to be 154 nM.

For another assay, the target named is T2, rabbit reticulocyte 15-LO (Oryctolagus cuniculus, UniProt P12530).
T2 construct: 15-LO is obtained from phenylhydrazine-treated rabbits and purified according to the method of Rapoport; from tissue; host or cells: reticulocytes of phenylhydrazine-treated rabbits
T2 sequence (P12530 1-663): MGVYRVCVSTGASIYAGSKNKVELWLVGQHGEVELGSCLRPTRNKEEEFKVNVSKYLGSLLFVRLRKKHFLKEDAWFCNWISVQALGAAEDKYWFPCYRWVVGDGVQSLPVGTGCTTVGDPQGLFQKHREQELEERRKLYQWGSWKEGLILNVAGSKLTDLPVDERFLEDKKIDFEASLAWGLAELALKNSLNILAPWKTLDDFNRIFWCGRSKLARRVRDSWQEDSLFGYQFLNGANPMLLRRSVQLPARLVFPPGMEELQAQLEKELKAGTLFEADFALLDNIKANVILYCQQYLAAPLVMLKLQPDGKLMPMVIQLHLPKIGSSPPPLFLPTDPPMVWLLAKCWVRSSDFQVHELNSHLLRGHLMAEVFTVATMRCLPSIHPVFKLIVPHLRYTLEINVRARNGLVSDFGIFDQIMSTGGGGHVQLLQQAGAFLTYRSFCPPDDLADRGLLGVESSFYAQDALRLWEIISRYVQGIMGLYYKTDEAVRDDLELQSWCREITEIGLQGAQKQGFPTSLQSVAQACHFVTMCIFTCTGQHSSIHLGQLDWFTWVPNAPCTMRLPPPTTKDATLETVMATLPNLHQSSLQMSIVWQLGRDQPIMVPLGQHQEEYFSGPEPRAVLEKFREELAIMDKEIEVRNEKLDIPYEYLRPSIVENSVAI
In words: Rabbit Reticulocyte 15-LO Assay (H15LO). The format is biochemical. To be noted: 2 U rabbit reticulocyte 15-LO, 174 μM linoleic acid, 15 minutes at 4° C., 13-HODE quantitated. The method, then: In the H15LO assay, a test compound was incubated with 15-LO enzyme in the presence of the linoleic acid substrate. For example, 2 units (U) of rabbit reticulocyte 15-LO and 174 μM linoleic acid were incubated with a known amount of a test compound of the present invention for 15 minutes at 4° C. The total reaction volume was 100 μL in phosphate buffer saline (PBS) containing 0.2% sodium cholate. The reaction was stopped with 100 μL of mobile phase and […] of triethyl phosphite. […] 13-HODE was quantitated by comparing peak areas of individual samples with those from a standard curve generated using authentic 13-HODE.
15-LO is obtained from phenylhydrazine-treated rabbits and purified according to the method of Rapoport (Rapoport et al., European Journal of Biochemistry, 1979;96:545-561).
The compound `CCCCCCCCCCCCOC(=O)NS(=O)(=O)Nc1cc(-c2cc3cc(F)c(F)cc3[nH]2)ccc1OC` [Example 1, Carbamic Acid, [[[5-(5,6-difluoro-IH-indol-2-yl)-2-methoxyphenyl]amino]-sulfonyl]-, Dodecyl Ester] yielded an IC50 of 17 nM. Still for that read-out and setting: in the case of `COc1ccc(-c2cc3cc(F)c(F)cc3[nH]2)cc1NS(=O)(=O)N(C)C(=O)OCCCOCc1ccccc1` [Example 13, Carbamic Acid, [[[5-(5,6-difluoro-IH-indol-2-yl)-2-methoxyphenyl]amino]-sulfonyl]methyl-, 3(phenylmethoxy)propyl ester] it was 12 nM; in that of `COc1ccc(-c2cc3cc(F)c(F)cc3[nH]2)cc1NS(=O)(=O)NC(=O)OCC(=O)OCc1ccccc1` [Example 16, Acetic Acid, [[[[[[5-(5,6-difluoro-IH-indol-2-yl)-2-methoxyphenyl]amino]-sulfonyl]amino]carbonyl]oxy]-, phenylmethyl ester], 2 nM; in that of `COc1ccc(-c2cc3cc(F)c(F)cc3[nH]2)cc1NS(=O)(=O)NC(=O)OC(C)(C)C` [Example 53, Carbamic Acid, [[[5-(5,6-difluoro-indol-2-yl)-2-methoxyphenyl]amino]-sulfonyl]-, 1,1-dimethylethyl ester], 23 nM.
